Measured values from PubChem BioAssay (NCI).
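Briefly, cells in 96-well plates were exposed to five compound concentrations for 48 h, and endpoints were estimated by linear interpolation. Here, GI50 denotes the concentration required for 50% inhibition of growth. TGI: concentration producing complete growth inhibition.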

Columns and labels:
Experiment in all cases: DTP human tumour cell line panel, 48 h
[1] = test system: CAKI-1 renal
[2] = test system: COLO 205 colon
[3] = test system: HCC-2998 colon
[4] = test system: IGROV1 ovarian
[5] = test system: MDA-MB-231 breast
[6] = test system: MDA-MB-435
[7] = test system: SK-MEL-2 melanoma
[8] = test system: T-47D breast
[9] = test system: UACC-62 melanoma
[10] = test system: RXF 393 renal

SMILES | GI50 [1] | TGI [1] | GI50 [2] | TGI [2] | GI50 [3] | TGI [3] | GI50 [4] | TGI [4] | GI50 [5] | TGI [5] | GI50 [6] | TGI [6] | GI50 [7] | TGI [7] | GI50 [8] | TGI [8] | GI50 [9] | TGI [9] | TGI [10] | GI50 [10]
COc1cccc(/C=C2\COc3ccc(-c4ccccc4)cc3C2=O)c1 | 2.55 µM | 6.42 µM | 2.18 µM | 5.06 µM | 2 µM | 3.95 µM | 3.12 µM | 8.39 µM | 2.94 µM | 7.61 µM | 3.21 µM | > 100 µM | 2.38 µM | 5.27 µM | 2.03 µM | 4.98 µM | 3.06 µM | 12.8 µM | – | –
CC(=O)O[C@H]1CC[C@@]2(C)C(=CC[C@@H]3C2CC[C@]2(C)Nc4nc5ccccc5cc4CC32)C1 (stereo partly drawn) | – | 18.4 µM | – | 20.9 µM | – | 10.8 µM | – | 30 µM | – | – | – | – | – | 31.7 µM | – | – | – | 22.9 µM | 5.09 µM | –
C=CCc1cc(OC)c2c(c1)C(OC)CC(c1ccc(OC)c(OC)c1)O2 (stereo not drawn) | – | > 100 µM | – | > 100 µM | – | > 100 µM | – | > 100 µM | – | – | – | – | – | > 100 µM | – | – | – | > 100 µM | – | –
c1cc2c(cn1)Nc1ccncc1S2 | > 100 µM | > 100 µM | 11.8 µM | 59.5 µM | 49.8 µM | > 100 µM | – | – | 98.9 µM | > 100 µM | 73.9 µM | > 100 µM | 35.2 µM | > 100 µM | 34.8 µM | > 100 µM | 41.9 µM | > 100 µM | 42.3 µM | 15.6 µM
CN(CCCNC(=O)CCOCCOCCOCCNC(=O)Cc1ccc2ccc3cccc4ccc1c2c34)CCCNc1cc(-c2ccc3ccccc3c2)nc2ccccc12 | 1.06 µM | 3.34 µM | 0.436 µM | 0.902 µM | 0.554 µM | 1.03 µM | – | – | 0.546 µM | 1.06 µM | 0.108 µM | 0.403 µM | 4.84 µM | 13.2 µM | 0.654 µM | 1.34 µM | 1.12 µM | 4.55 µM | 0.963 µM | 0.507 µM
O=C1Cc2cc(C(=O)NC3C[C@H]4CC[C@@H](C3)N4S(=O)(=O)CC3CCN(CCCC(F)(F)F)CC3)c(Cl)cc2N1 (stereo partly drawn) | > 100 µM | > 100 µM | 31.2 µM | > 100 µM | > 100 µM | > 100 µM | > 100 µM | > 100 µM | > 100 µM | > 100 µM | > 100 µM | > 100 µM | > 100 µM | > 100 µM | > 100 µM | > 100 µM | > 100 µM | > 100 µM | – | –
Nc1ncnc2c1ncn2C1OC(CO)C(O)C1N (stereo not drawn) | – | > 100 µM | – | > 100 µM | – | – | – | > 100 µM | – | > 100 µM | – | > 100 µM | – | > 100 µM | – | > 100 µM | – | > 100 µM | > 100 µM | –
O=C(CC(Cl)=C(Cl)Cl)c1cccc(Cl)c1Cl | – | – | > 100 µM | > 100 µM | – | – | 46.3 µM | > 100 µM | 65.6 µM | > 100 µM | – | – | > 100 µM | > 100 µM | 42.5 µM | > 100 µM | 52.4 µM | > 100 µM | > 100 µM | > 100 µM
